Data set [1] in a line: Highest frequency of moderate liver toxicity observed during clinical trials, expressed as a percentage. [column '% BIOL' in source]. The conditions noted are these: human.
Data set [2] in a line: Highest frequency of acute liver toxicity observed during clinical trials, expressed as a percentage. [column '% AIGUE' in source]. The conditions noted are these: human.
The conditions of data set [3]: human, serum.
For data set [4] the following is noted: human, serum. This is another data set of the same source.
For data set [5] the following is noted: human.
For data set [6] the following is noted: human. This is another data set of the same source.
For data set [7] the following is noted: human. The source holds these as a separate data set.
For data set [8] the following is noted: human, serum, 4383 h.
For data set [9] the following is noted: human. The source holds these as a separate data set.
For data set [10] the following is noted: human. The source holds these as a separate data set.
The conditions of data set [11]: human. This is another data set of the same source.
The conditions of data set [12]: human. This is another data set of the same source.
For data set [13] the following is noted: human. The source holds these as a separate data set.
The conditions of data set [14]: human. This is another data set of the same source.
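For Hepatotoxicity (association with vascular disease) in this document: count of indexed literature references reporting vascular liver injury in humans, e.g. peliosis hepatitis, hepatic veno-occlusive disease or Budd-Chiari syndrome.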
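For Hepatotoxicity (benign tumour) in this document: value is a count of indexed literature references citing a benign tumour confirmed by histopathology.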
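For Hepatotoxicity (choleostasis) in this document: human cholestatic liver injury, shown by histopathology or by peak ALT or AST elevation over alkaline phosphatase ratio below 2, value counts indexed literature reports.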
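For Hepatotoxicity (chronic liver disease) in this document: chronic liver injury confirmed by histopathology or persistently raised serum aminotransferase activity beyond 6 months, value given as the count of indexed literature references.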
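For Hepatotoxicity (cirrhosis) in this document: value is a count of indexed literature references reporting cirrhosis confirmed by histopathology.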
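For Hepatotoxicity (cytolytic) in this document: human cytolytic liver injury, shown by histopathology or by a ratio above 5 of peak ALT or AST elevation to alkaline phosphatase elevation, value counts indexed references.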
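For Hepatotoxicity (granulomatous hepatitis) in this document: value is a count of indexed literature references reporting granulomatous liver disease confirmed by histopathology.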
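For Hepatotoxicity (malignant tumour) in this document: malignant tumour confirmed by histopathology, value gives the count of indexed literature references reporting it.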
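For Hepatotoxicity (severe hepatitis) in this document: human clinical data: severe hepatitis, meaning potentially life-threatening liver failure or clinically observed cases, the value counts how many indexed literature references report it.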
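For Hepatotoxicity (steatosis) in this document: steatosis confirmed by histopathology, value is the count of indexed references.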

For the compound `CC#CCC(C)[C@H](O)/C=C/[C@@H]1[C@H]2c3cccc(CCCC(=O)O)c3O[C@H]2C[C@H]1O` (stereo partly drawn) [BERAPROST], the “Hepatotoxicity (moderate)” value was found to be 13% in data set [1] and 1 in [3]. The “Hepatotoxicity (acute)” value in [2] was 0%; in data set [4] it was 0. In data set [5], the “Hepatotoxicity (cytolytic)” value is 0. Also, the “Hepatotoxicity (choleostasis)” value in [6] is on record as 0. Further, the “Hepatotoxicity (severe hepatitis)” value in data set [7] was 0. Besides, the “Hepatotoxicity (chronic liver disease)” value in data set [8] is 0. The “Hepatotoxicity (cirrhosis)” value in data set [9] worked out at 0. In [10], the “Hepatotoxicity (granulomatous hepatitis)” value is given as 0. For the same compound, the “Hepatotoxicity (association with vascular disease)” value in data set [11] is on record as 0. Besides, the “Hepatotoxicity (steatosis)” value in data set [12] is recorded as 0. The “Hepatotoxicity (malignant tumour)” value in data set [13] is listed as 0. Further, in [14], the “Hepatotoxicity (benign tumour)” value was found to be 0.

Consider LOBAPLATIN, for which the “Hepatotoxicity (moderate)” value is 3.7% in data set [1] and 1 in [3]. For the same compound, the “Hepatotoxicity (acute)” value in data set [2] is recorded as 0%; in data set [4] it was 0. The “Hepatotoxicity (cytolytic)” value in [5] is 0. Moreover, the “Hepatotoxicity (choleostasis)” value in data set [6] was found to be 0. Moreover, the “Hepatotoxicity (severe hepatitis)” value in [7] was found to be 0. In addition, the “Hepatotoxicity (chronic liver disease)” value in data set [8] was 0. Moreover, in data set [9], the “Hepatotoxicity (cirrhosis)” value was found to be 0. In [10], the “Hepatotoxicity (granulomatous hepatitis)” value was found to be 0. Besides, in data set [11], the “Hepatotoxicity (association with vascular disease)” value is 0. For the same compound, the “Hepatotoxicity (steatosis)” value in [12] stood at 0. Besides, the “Hepatotoxicity (malignant tumour)” value in data set [13] came to 0. In addition, in data set [14], the “Hepatotoxicity (benign tumour)” value is recorded as 0.

On to `C#C[C@]1(O)CC[C@H]2[C@@H]3CCC4=CC(=O)CCC4=C3C=C[C@@]21CC` [GESTRINONE], for which the figures for the “Hepatotoxicity (moderate)” value in [1] and in [3] were 0.8% and 1, respectively. Moreover, the “Hepatotoxicity (acute)” value amounted to 0% in [2] and 0 in data set [4]. Further, the “Hepatotoxicity (cytolytic)” value in data set [5] amounted to 0. Moreover, the “Hepatotoxicity (choleostasis)” value in data set [6] was 0. Also, in [7], the “Hepatotoxicity (severe hepatitis)” value worked out at 0. Further, the “Hepatotoxicity (chronic liver disease)” value in data set [8] is recorded as 0. In addition, the “Hepatotoxicity (cirrhosis)” value in data set [9] stood at 0. Further, the “Hepatotoxicity (granulomatous hepatitis)” value in data set [10] is reported as 0. For the same compound, the “Hepatotoxicity (association with vascular disease)” value in [11] is 0. In data set [12], the “Hepatotoxicity (steatosis)” value is listed as 0. The “Hepatotoxicity (malignant tumour)” value in data set [13] was 0. In data set [14], the “Hepatotoxicity (benign tumour)” value worked out at 0.

For the compound `CN1CCC(=C2c3ccccc3CC(=O)c3sccc32)CC1` [KETOTIFEN], the “Hepatotoxicity (moderate)” value in data set [1] is 0%; in data set [3] it was 0. For the same compound, the “Hepatotoxicity (acute)” value is recorded as 0% in data set [2] and 1 in [4]. Moreover, in data set [5], the “Hepatotoxicity (cytolytic)” value is 0. Moreover, the “Hepatotoxicity (choleostasis)” value in [6] worked out at 0. Further, in data set [7], the “Hepatotoxicity (severe hepatitis)” value is 0. In addition, the “Hepatotoxicity (chronic liver disease)” value in data set [8] was determined as 0. Also, the “Hepatotoxicity (cirrhosis)” value in data set [9] was 0. Moreover, the “Hepatotoxicity (granulomatous hepatitis)” value in [10] is reported as 0. Further, the “Hepatotoxicity (association with vascular disease)” value in data set [11] is listed as 0. Further, in [12], the “Hepatotoxicity (steatosis)” value turned out to be 0. Also, in [13], the “Hepatotoxicity (malignant tumour)” value is reported as 0. In addition, the “Hepatotoxicity (benign tumour)” value in data set [14] is listed as 0.

As for `CCN1CCN(C(=O)N[C@@H](C(=O)N[C@@H]2C(=O)N3[C@@H]2SC(C)(C)[C@@H]3C(=O)O)c2ccccc2)C(=O)C1=O.C[C@]1(Cn2ccnn2)[C@H](C(=O)O)N2C(=O)C[C@H]2S1(=O)=O`, the “Hepatotoxicity (moderate)” value in data set [1] is 33.3%; in data set [3], 46. In addition, the “Hepatotoxicity (acute)” value in [2] was 0%; in data set [4] it was 0. The “Hepatotoxicity (cytolytic)” value in data set [5] is 0. For the same compound, in [6], the “Hepatotoxicity (choleostasis)” value came to 0. For the same compound, in [7], the “Hepatotoxicity (severe hepatitis)” value worked out at 0. The “Hepatotoxicity (chronic liver disease)” value in data set [8] was 0. Also, the “Hepatotoxicity (cirrhosis)” value in [9] turned out to be 0. For the same compound, the “Hepatotoxicity (granulomatous hepatitis)” value in data set [10] was determined as 0. In addition, the “Hepatotoxicity (association with vascular disease)” value in [11] was 0. Besides, in [12], the “Hepatotoxicity (steatosis)” value is given as 0. Moreover, in data set [13], the “Hepatotoxicity (malignant tumour)” value stood at 0. For the same compound, the “Hepatotoxicity (benign tumour)” value in [14] stood at 0.

Take `CO[C@H]1O[C@@H]2O[C@@]3(C)CC[C@H]4[C@H](C)CC[C@@H]([C@H]1C)[C@@]24OO3`: the “Hepatotoxicity (moderate)” value in data set [1] worked out at 17%; in data set [3], 1. Besides, the results for the “Hepatotoxicity (acute)” value in data set [2] and in data set [4] were 0% and 0, respectively. For the same compound, in [5], the “Hepatotoxicity (cytolytic)” value is on record as 0. In addition, the “Hepatotoxicity (choleostasis)” value in [6] stood at 0. Moreover, in [7], the “Hepatotoxicity (severe hepatitis)” value was 0. Also, the “Hepatotoxicity (chronic liver disease)” value in [8] is on record as 0. Besides, the “Hepatotoxicity (cirrhosis)” value in data set [9] is 0. Besides, the “Hepatotoxicity (granulomatous hepatitis)” value in [10] came to 0. Besides, in data set [11], the “Hepatotoxicity (association with vascular disease)” value was 0. Besides, the “Hepatotoxicity (steatosis)” value in data set [12] was found to be 0. Also, the “Hepatotoxicity (malignant tumour)” value in data set [13] is reported as 0. Further, the “Hepatotoxicity (benign tumour)” value in data set [14] is listed as 0.

For `C[C@@](Cc1ccc(O)c(O)c1)(NN)C(=O)O.O` [CARBIDOPA], the “Hepatotoxicity (moderate)” value is on record as 0% in [1] and 0 in data set [3]. For the same compound, the “Hepatotoxicity (acute)” value is reported as 0% in data set [2] and 1 in data set [4]. The “Hepatotoxicity (cytolytic)” value in [5] is recorded as 0. In addition, the “Hepatotoxicity (choleostasis)” value in [6] stood at 1. Further, the “Hepatotoxicity (severe hepatitis)” value in data set [7] came out at 0. In addition, in [8], the “Hepatotoxicity (chronic liver disease)” value was 0. Besides, the “Hepatotoxicity (cirrhosis)” value in data set [9] was 0. Further, in data set [10], the “Hepatotoxicity (granulomatous hepatitis)” value is given as 0. Also, in data set [11], the “Hepatotoxicity (association with vascular disease)” value is 0. Moreover, the “Hepatotoxicity (steatosis)” value in [12] was determined as 1. In data set [13], the “Hepatotoxicity (malignant tumour)” value is 0. In [14], the “Hepatotoxicity (benign tumour)” value was determined as 0.

In the case of `Cc1cccc(Nc2cc(Cl)nc(SCC(=O)NCCO)n2)c1C` [PIRINIXIL], the “Hepatotoxicity (moderate)” value in data set [1] is 0%; in [3] it was 1. In addition, the “Hepatotoxicity (acute)” value in data set [2] is listed as 0%; in data set [4], 0. In addition, the “Hepatotoxicity (cytolytic)” value in [5] came to 0. In addition, the “Hepatotoxicity (choleostasis)” value in data set [6] is given as 0. Further, in [7], the “Hepatotoxicity (severe hepatitis)” value is on record as 0. The “Hepatotoxicity (chronic liver disease)” value in data set [8] is given as 0. The “Hepatotoxicity (cirrhosis)” value in data set [9] was 0. Also, the “Hepatotoxicity (granulomatous hepatitis)” value in data set [10] worked out at 0. Further, in data set [11], the “Hepatotoxicity (association with vascular disease)” value amounted to 0. Moreover, the “Hepatotoxicity (steatosis)” value in data set [12] was 0. Besides, in [13], the “Hepatotoxicity (malignant tumour)” value came out at 0. Also, the “Hepatotoxicity (benign tumour)” value in [14] amounted to 0.

As to `CNC1(c2ccccc2Cl)CCCCC1=O` (stereo not drawn) [KETAMINE], the “Hepatotoxicity (moderate)” value in data set [1] was determined as 23.5%; in data set [3], 2. The “Hepatotoxicity (acute)” value in data set [2] is recorded as 0%; in data set [4], 0. The “Hepatotoxicity (cytolytic)” value in data set [5] is 0. Besides, the “Hepatotoxicity (choleostasis)” value in [6] is 0. Further, in data set [7], the “Hepatotoxicity (severe hepatitis)” value is recorded as 0. Besides, the “Hepatotoxicity (chronic liver disease)” value in data set [8] came out at 0. Also, the “Hepatotoxicity (cirrhosis)” value in data set [9] is given as 0. In addition, the “Hepatotoxicity (granulomatous hepatitis)” value in data set [10] was 0. Besides, the “Hepatotoxicity (association with vascular disease)” value in data set [11] is recorded as 0. Further, in data set [12], the “Hepatotoxicity (steatosis)” value worked out at 0. In data set [13], the “Hepatotoxicity (malignant tumour)” value stood at 0. Besides, the “Hepatotoxicity (benign tumour)” value in data set [14] is 0.

In the case of `CC1CCN(CCCC(=O)c2ccc(F)cc2)CC1` [MELPERONE], the results for the “Hepatotoxicity (moderate)” value in data set [1] and in data set [3] were 12% and 2, respectively. For the same compound, the “Hepatotoxicity (acute)” value is reported as 0% in [2] and 0 in data set [4]. Also, in [5], the “Hepatotoxicity (cytolytic)” value is listed as 0. The “Hepatotoxicity (choleostasis)” value in data set [6] was determined as 0. Moreover, the “Hepatotoxicity (severe hepatitis)” value in [7] amounted to 0. Also, in [8], the “Hepatotoxicity (chronic liver disease)” value was determined as 0. For the same compound, the “Hepatotoxicity (cirrhosis)” value in data set [9] stood at 0. The “Hepatotoxicity (granulomatous hepatitis)” value in [10] stood at 0. For the same compound, the “Hepatotoxicity (association with vascular disease)” value in data set [11] came out at 0. The “Hepatotoxicity (steatosis)” value in data set [12] came out at 0. Also, the “Hepatotoxicity (malignant tumour)” value in data set [13] stood at 0. Also, the “Hepatotoxicity (benign tumour)” value in data set [14] was 0.

As to `CC(C)(N)C(=O)N[C@H](COCc1ccccc1)C(=O)N1CCC2(CC1)CN(S(C)(=O)=O)c1ccccc12` [IBUTAMOREN], the “Hepatotoxicity (moderate)” value in data set [1] is given as 21.4%; in [3], 1. Besides, the “Hepatotoxicity (acute)” value came to 0% in data set [2] and 0 in data set [4]. Further, in data set [5], the “Hepatotoxicity (cytolytic)” value was 0. Further, the “Hepatotoxicity (choleostasis)” value in data set [6] worked out at 0. Moreover, in data set [7], the “Hepatotoxicity (severe hepatitis)” value came out at 0. The “Hepatotoxicity (chronic liver disease)” value in data set [8] is 0. Further, the “Hepatotoxicity (cirrhosis)” value in data set [9] worked out at 0. Also, the “Hepatotoxicity (granulomatous hepatitis)” value in data set [10] amounted to 0. The “Hepatotoxicity (association with vascular disease)” value in data set [11] stood at 0. Further, the “Hepatotoxicity (steatosis)” value in [12] is given as 0. The “Hepatotoxicity (malignant tumour)” value in data set [13] is recorded as 0. Moreover, in data set [14], the “Hepatotoxicity (benign tumour)” value was found to be 0.

As to `C[C@@H](O)[C@H]1C(=O)N2C(C(=O)O)=C(S[C@@H]3CN[C@H](C(=O)N(C)C)C3)[C@H](C)[C@H]12` [MEROPENEM], the “Hepatotoxicity (moderate)” value in data set [1] was 48.1%; in data set [3] it was 92. Moreover, the figures for the “Hepatotoxicity (acute)” value in data set [2] and in data set [4] were 5.3% and 1, respectively. Further, the “Hepatotoxicity (cytolytic)” value in [5] amounted to 0. Moreover, in [6], the “Hepatotoxicity (choleostasis)” value is 0. Besides, the “Hepatotoxicity (severe hepatitis)” value in [7] is recorded as 0. Further, the “Hepatotoxicity (chronic liver disease)” value in data set [8] is given as 0. The “Hepatotoxicity (cirrhosis)” value in data set [9] was 0. Moreover, the “Hepatotoxicity (granulomatous hepatitis)” value in data set [10] is 0. Moreover, the “Hepatotoxicity (association with vascular disease)” value in data set [11] came to 0. Moreover, the “Hepatotoxicity (steatosis)” value in [12] was 0. For the same compound, the “Hepatotoxicity (malignant tumour)” value in [13] turned out to be 0. The “Hepatotoxicity (benign tumour)” value in data set [14] is given as 0.

(Values after ChEMBL document CHEMBL3137667, “[Drug-induced liver injury; fourteenth updated edition of the bibliographic database of liver injuries and related drugs]” (Gastroenterol Clin Biol, 2004).)
